The values that follow come from ChEMBL document CHEMBL3351322, “Study the interactions between human serum albumin and two antifungal drugs: fluconazole and its analogue DTP” (Bioorg Med Chem Lett, 2014).

Type in all cases: ADME
Series [1] addresses T1, Albumin (Homo sapiens, UniProt P02768). In words: Binding affinity to human serum albumin at 0.4 to 5.6 x 10' -5 M by UV-Vis spectroscopy. The settings on record: isolated protein.
Series [2] addresses T1, Albumin. Description: Ratio of binding constant for human serum albumin in presence of Mn2+ to binding constant for human serum albumin in absence of metal ions.
Series [3] addresses T1, Albumin. In words: Ratio of binding constant for human serum albumin in presence of Co2+ to binding constant for human serum albumin in absence of metal ions.
Series [4] addresses T1, Albumin. Description: Ratio of binding constant for human serum albumin in presence of Fe3+ to binding constant for human serum albumin in absence of metal ions.
For series [5], the target named is T1, Albumin. In words: Ratio of binding constant for human serum albumin in presence of Zn2+ to binding constant for human serum albumin in absence of metal ions.
In series [6] the target is T1, Albumin. Description: Ratio of binding constant for human serum albumin in presence of Ba2+ to binding constant for human serum albumin in absence of metal ions.
The target in series [7] is T1, Albumin. Description: Ratio of binding constant for human serum albumin in presence of Cr3+ to binding constant for human serum albumin in absence of metal ions.
Series [8] has as its target T1, Albumin. Description: Ratio of binding constant for human serum albumin in presence of La3+ to binding constant for human serum albumin in absence of metal ions.
Series [9] has as its target T1, Albumin. In words: Ratio of binding constant for human serum albumin in presence of Mg2+ to binding constant for human serum albumin in absence of metal ions.
For series [10], the target named is T1, Albumin. Description: Ratio of binding constant for human serum albumin in presence of Cu2+ to binding constant for human serum albumin in absence of metal ions.
The target in series [11] is T1, Albumin. In words: Ratio of binding constant for human serum albumin in presence of Ni2+ to binding constant for human serum albumin in absence of metal ions.

Structures are written as SMILES.

T1 sequence (P02768 whole entry): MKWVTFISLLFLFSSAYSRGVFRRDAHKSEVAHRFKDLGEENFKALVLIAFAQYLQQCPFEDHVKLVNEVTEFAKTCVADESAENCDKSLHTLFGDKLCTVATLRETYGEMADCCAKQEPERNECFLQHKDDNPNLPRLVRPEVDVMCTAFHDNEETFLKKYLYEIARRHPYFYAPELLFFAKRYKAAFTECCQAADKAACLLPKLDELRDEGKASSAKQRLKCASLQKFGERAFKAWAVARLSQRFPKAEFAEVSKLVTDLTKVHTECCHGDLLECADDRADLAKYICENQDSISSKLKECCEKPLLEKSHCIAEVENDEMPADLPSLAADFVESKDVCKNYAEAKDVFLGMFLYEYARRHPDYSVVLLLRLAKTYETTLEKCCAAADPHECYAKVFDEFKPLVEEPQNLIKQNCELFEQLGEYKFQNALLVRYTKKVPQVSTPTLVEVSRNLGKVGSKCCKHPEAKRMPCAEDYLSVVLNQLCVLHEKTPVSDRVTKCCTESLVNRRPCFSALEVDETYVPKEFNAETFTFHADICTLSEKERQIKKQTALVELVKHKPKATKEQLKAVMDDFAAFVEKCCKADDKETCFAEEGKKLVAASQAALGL

`OC(Cn1cncn1)(Cn1cncn1)c1ccc(Cl)cc1Cl`: the result on Albumin [1] was Active.
Regarding `OC(Cn1cncn1)(Cn1cncn1)c1ccc(F)cc1F` [FLUCONAZOLE], the Ratio at Albumin [2] turned out to be 0.868; on Albumin [3] it was 0.945; on Albumin [4] it was 0.741; on Albumin [5] it was 1.11; at Albumin [6] it was 0.956; at Albumin [7], 0.866. For the same compound, the Ratio on Albumin [8] is listed as 0.905; on Albumin [9], 1.081; on Albumin [10], 0.961; at Albumin [11], 0.857. For the same compound, the outcome on Albumin [1] was Active.
